# US20250296971A1, “GASTRIC INHIBITORY PEPTIDE RECEPTOR LIGANDS” (priority 2021, published 2025)
# *1 amine or outer side, *2 acyl side, *3 side chain or, on linkers, in order; H or OH if unused. Where a SMILES comes first, the peptide text is derived from it. Bridges are numbered along the chain shown (N, C = ends). [ ]: non-standard residue; d: D form. The star is where a group is joined. NH(1-deoxy-D-glucityl) = OC[C@@H](O)[C@@H](O)[C@H](O)[C@@H](O)CN*; DOTA = O=C(O)CN1CCN(CC(=O)O)CCN(CC(=O)*)CCN(CC(=O)O)CC1; X9 = O=C(O)CN1CCN(CC(=O)O)CCN([C@H](CCC(=O)*)C(=O)O)CC1; Trp(5-Cl) = N[C@@H](Cc1c[nH]c2ccc(Cl)cc12)C(=O)O; Pyridine(2,6-diCH2) = c1cc(C[*:1])nc(C[*:2])c1; Pro(4R-NH2) = N[C@H]1CN[C@H](C(=O)O)C1; Glutaryl = O=C(CCCC(=O)[*:2])[*:1]; PEG6 = NCCOCCOCCOCCOCCOCCOCCC(=O)O; X1 = O=C(CN1CCC(N[*:1])CC1)[*:2]; Suc = O=C(CCC(=O)[*:2])[*:1]; dDab = NCC[C@@H](N)C(=O)O; Api = NC1(C(=O)O)CCNCC1; Dab = NCC[C@H](N)C(=O)O; Thp = NC1(C(=O)O)CCOCC1; AEEA = NCCOCCOCC(=O)O
# Target: T1, GIPR (CHO-K1-hGIPR cells) (Homo sapiens, UniProt P48546)
# T1 construct: host or cells: CHO-K1
# T1 sequence (P48546 22-466): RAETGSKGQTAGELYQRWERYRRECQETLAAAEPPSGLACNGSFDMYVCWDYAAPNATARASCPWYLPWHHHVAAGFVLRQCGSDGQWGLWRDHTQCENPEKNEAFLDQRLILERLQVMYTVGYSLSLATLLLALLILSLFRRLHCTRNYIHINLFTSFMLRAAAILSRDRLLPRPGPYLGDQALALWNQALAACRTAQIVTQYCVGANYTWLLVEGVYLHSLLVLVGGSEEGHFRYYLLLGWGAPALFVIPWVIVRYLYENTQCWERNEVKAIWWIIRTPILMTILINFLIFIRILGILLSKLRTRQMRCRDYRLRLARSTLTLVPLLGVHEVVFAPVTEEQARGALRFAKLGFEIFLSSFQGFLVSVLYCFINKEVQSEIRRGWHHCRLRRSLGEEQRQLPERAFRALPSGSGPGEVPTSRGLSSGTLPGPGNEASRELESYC
# Assay: FACS binding assay
# Settings: competition with 20 nM GIP-057, 4° C., 1 hour, read-out: pIC50 Category (converted)
# Protocol: In order to determine binding of compounds according to the present invention to GIPR-expressing cells, a FACS binding assay was established.
# CHO-K1-hGIPR cells (GenScript Biotech, #M00486) were cultured in Ham's F12 medium (Sigma-Aldrich, #N4888) including 10% fetal calf serum (FCS), 2 mM L-glutamine, 100 U/mL penicillin, 100 μg/mL streptomycin, 200 μg/mL Zeocin and 100 μg/mL HygromycinB. Cells were detached with Accutase (Biolegend, #BLD-423201) and washed in FACS buffer (PBS including 1% FCS). Cells were diluted in FACS buffer to a final concentration of 500.000 cells per mL. 200 μL of the cell suspension were transferred to a u-shaped non-binding 96-well plate (Greiner) and cells were washed in ice-cold FACS buffer.
# Cells were washed twice in FACS buffer. An additional incubation step with 1 μg/mL APC-Streptavidin (Miltenyi; #130-106-791) in 50 μL FACS buffer for 30 min on ice was performed followed by two washes with FACS buffer.
# Cells were analyzed in an Attune NxT flow cytometer. Median fluorescence intensities (MFI) of the APC/Cy5-channel were calculated by Attune NxT software. MFI values were plotted against peptide concentration and four parameter logistic (4PL) curve fitting and EC50/pEC50 or IC50/pIC50 calculations were performed using ActivityBase software.
row,Structure (SMILES),IC50 [µM]
1,"CC[C@H](C)[C@@H]1NC(=O)[C@H](CC(C)C)NC(=O)C2(CCOCC2)NC(=O)[C@@H](NC(=O)[C@@H](CC(C)C)NC(=O)[C@H](CCC(=O)O)NC(=O)[C@@H]2C[C@@H](N)CN2C(=O)[C@H](Cc2c[nH]c3ccc(Cl)cc23)NC(=O)[C@H](Cc2c[nH]c3ccccc23)NC(=O)[C@H](CC(=O)O)NC(=O)CCOCCOCCOCCOCCOCCOCCNC(=O)[C@@H](CCC(=O)NC[C@H](O)[C@@H](O)[C@H](O)[C@H](O)CO)NC(=O)CN2CCN(CC(=O)O)CCN(CC(=O)O)CCN(CC(=O)O)CC2)CSCc2cccc(n2)CSC[C@@H](C(=O)NC2CCN(CC(=O)N[C@H](CCC(=O)NC[C@H](O)[C@@H](O)[C@H](O)[C@H](O)CO)C(N)=O)CC2)NC1=O [GIP-019, DOTA-glu(AGLU)-PEG6-Asp-Trp-5Clw-Tap-Glu-leu-[Cys(2Lut)-Thp-Leu-Ile-Cys]-APAc-glu(AGLU)-NH2] ({DOTA}-[dE](NH(1-deoxy-D-glucityl))[PEG6]DW[Trp(5-Cl)][Pro(4R-NH2)]E[dL]C[Thp]LIC[X1][dE](NH(1-deoxy-D-glucityl))-NH2; linker 9-13 via Pyridine(2,6-diCH2))",< 0.01
2,"CC[C@H](C)[C@@H]1NC(=O)[C@H](CC(C)C)NC(=O)C2(CCOCC2)NC(=O)[C@@H](NC(=O)[C@@H](CC(C)C)NC(=O)[C@H](CCC(=O)O)NC(=O)[C@@H]2C[C@@H](N)CN2C(=O)[C@H](Cc2c[nH]c3ccc(Cl)cc23)NC(=O)[C@H](Cc2c[nH]c3ccccc23)NC(=O)[C@H](CC(=O)O)NC(=O)COCCOCCNC(=O)[C@@H](CCC(=O)NC[C@H](O)[C@@H](O)[C@H](O)[C@H](O)CO)NC(=O)CN2CCN(CC(=O)O)CCN(CC(=O)O)CCN(CC(=O)O)CC2)CSCc2cccc(n2)CSC[C@@H](C(=O)NC2CCN(CC(=O)N[C@H](CCC(=O)NC[C@H](O)[C@@H](O)[C@H](O)[C@H](O)CO)C(N)=O)CC2)NC1=O [GIP-020, DOTA-glu(AGLU)-O2Oc-Asp-Trp-5Clw-Tap-Glu-leu-[Cys(2Lut)-Thp-Leu-Ile-Cys]-APAc-glu(AGLU)-NH2] ({DOTA}-[dE](NH(1-deoxy-D-glucityl))[AEEA]DW[Trp(5-Cl)][Pro(4R-NH2)]E[dL]C[Thp]LIC[X1][dE](NH(1-deoxy-D-glucityl))-NH2; linker 9-13 via Pyridine(2,6-diCH2))",< 0.01
3,"CC[C@H](C)[C@@H]1NC(=O)[C@H](CC(C)C)NC(=O)C2(CCN(C(=O)CN3CCN(CC(=O)O)CCN(CC(=O)O)CCN(CC(=O)O)CC3)CC2)NC(=O)[C@@H](NC(=O)[C@@H](CC(C)C)NC(=O)[C@H](CCC(=O)O)NC(=O)[C@@H]2C[C@@H](N)CN2C(=O)[C@H](Cc2c[nH]c3ccc(Cl)cc23)NC(=O)[C@H](Cc2c[nH]c3ccccc23)NC(=O)CCC(=O)O)CSCc2cccc(n2)CSC[C@@H](C(=O)NC2CCN(CC(=O)N[C@H](CCC(=O)NC[C@H](O)[C@@H](O)[C@H](O)[C@H](O)CO)C(N)=O)CC2)NC1=O [GIP-023, HO-Succinyl-Trp-5Clw-Tap-Glu-leu-[Cys(2Lut)-Apc(DOTA)-Leu-Ile-Cys]-APAc-glu(AGLU)-NH2] (Suc-W[Trp(5-Cl)][Pro(4R-NH2)]E[dL]C[Api](DOTA)LIC[X1][dE](NH(1-deoxy-D-glucityl))-NH2; linker 6-10 via Pyridine(2,6-diCH2))",< 0.01
4,"CC[C@H](C)[C@@H]1NC(=O)[C@H](CC(C)C)NC(=O)[C@H](CCCCNC(=O)CN2CCN(CC(=O)O)CCN(CC(=O)O)CCN(CC(=O)O)CC2)NC(=O)[C@@H](NC(=O)[C@@H](CC(C)C)NC(=O)[C@H](CCC(=O)O)NC(=O)[C@@H]2C[C@@H](N)CN2C(=O)[C@H](Cc2c[nH]c3ccc(Cl)cc23)NC(=O)[C@H](Cc2c[nH]c3ccccc23)NC(=O)[C@H](CC(=O)O)NC(=O)CCCC(=O)NC[C@H](O)[C@@H](O)[C@H](O)[C@H](O)CO)CSCc2cccc(n2)CSC[C@@H](C(=O)NC2CCN(CC(=O)N[C@H](CCC(=O)NC[C@H](O)[C@@H](O)[C@H](O)[C@H](O)CO)C(N)=O)CC2)NC1=O [GIP-024, AGLU-Glutar-Asp-Trp-5Clw-Tap-Glu-leu-[Cys(2Lut)-Lys(DOTA)-Leu-Ile-Cys]-APAc-glu(AGLU)-NH2] ({NH(1-deoxy-D-glucityl)-Glutaryl}-DW[Trp(5-Cl)][Pro(4R-NH2)]E[dL]CK(DOTA)LIC[X1][dE](NH(1-deoxy-D-glucityl))-NH2; linker 7-11 via Pyridine(2,6-diCH2))",< 0.01
5,"CC[C@H](C)[C@@H]1NC(=O)[C@H](CC(C)C)NC(=O)[C@@H](CCCCNC(=O)CN2CCN(CC(=O)O)CCN(CC(=O)O)CCN(CC(=O)O)CC2)NC(=O)[C@@H](NC(=O)[C@@H](CC(C)C)NC(=O)[C@H](CCC(=O)O)NC(=O)[C@@H]2C[C@@H](N)CN2C(=O)[C@H](Cc2c[nH]c3ccc(Cl)cc23)NC(=O)[C@H](Cc2c[nH]c3ccccc23)NC(=O)[C@H](CC(=O)O)NC(=O)CCCC(=O)NC[C@H](O)[C@@H](O)[C@H](O)[C@H](O)CO)CSCc2cccc(n2)CSC[C@@H](C(=O)NC2CCN(CC(=O)N[C@H](CCC(=O)NC[C@H](O)[C@@H](O)[C@H](O)[C@H](O)CO)C(N)=O)CC2)NC1=O [GIP-025, AGLU-Glutar-Asp-Trp-5Clw-Tap-Glu-leu-[Cys(2Lut)-lys(DOTA)-Leu-Ile-Cys]-APAc-glu(AGLU)-NH2] ({NH(1-deoxy-D-glucityl)-Glutaryl}-DW[Trp(5-Cl)][Pro(4R-NH2)]E[dL]C[dK](DOTA)LIC[X1][dE](NH(1-deoxy-D-glucityl))-NH2; linker 7-11 via Pyridine(2,6-diCH2))",0.01 to 0.0794

# More lines, now with the values ahead:
row,IC50 [µM],Structure (SMILES)
1,< 0.01,"CC[C@H](C)[C@@H]1NC(=O)[C@H](CC(C)C)NC(=O)[C@H](CCNC(=O)CN2CCN(CC(=O)O)CCN(CC(=O)O)CCN(CC(=O)O)CC2)NC(=O)[C@@H](NC(=O)[C@@H](CC(C)C)NC(=O)[C@H](CCC(=O)O)NC(=O)[C@@H]2C[C@@H](N)CN2C(=O)[C@H](Cc2c[nH]c3ccc(Cl)cc23)NC(=O)[C@H](Cc2c[nH]c3ccccc23)NC(=O)[C@H](CC(=O)O)NC(=O)CCCC(=O)NC[C@H](O)[C@@H](O)[C@H](O)[C@H](O)CO)CSCc2cccc(n2)CSC[C@@H](C(=O)NC2CCN(CC(=O)N[C@H](CCC(=O)NC[C@H](O)[C@@H](O)[C@H](O)[C@H](O)CO)C(N)=O)CC2)NC1=O [GIP-026, AGLU-Glutar-Asp-Trp-5Clw-Tap-Glu-leu-[Cys(2Lut)-Dab(DOTA)-Leu-Ile-Cys]-APAc-glu(AGLU)-NH2] ({NH(1-deoxy-D-glucityl)-Glutaryl}-DW[Trp(5-Cl)][Pro(4R-NH2)]E[dL]C[Dab](DOTA)LIC[X1][dE](NH(1-deoxy-D-glucityl))-NH2; linker 7-11 via Pyridine(2,6-diCH2))"
2,0.01 to 0.0794,"CC[C@H](C)[C@@H]1NC(=O)[C@H](CC(C)C)NC(=O)[C@@H](CCNC(=O)CN2CCN(CC(=O)O)CCN(CC(=O)O)CCN(CC(=O)O)CC2)NC(=O)[C@@H](NC(=O)[C@@H](CC(C)C)NC(=O)[C@H](CCC(=O)O)NC(=O)[C@@H]2C[C@@H](N)CN2C(=O)[C@H](Cc2c[nH]c3ccc(Cl)cc23)NC(=O)[C@H](Cc2c[nH]c3ccccc23)NC(=O)[C@H](CC(=O)O)NC(=O)CCCC(=O)NC[C@H](O)[C@@H](O)[C@H](O)[C@H](O)CO)CSCc2cccc(n2)CSC[C@@H](C(=O)NC2CCN(CC(=O)N[C@H](CCC(=O)NC[C@H](O)[C@@H](O)[C@H](O)[C@H](O)CO)C(N)=O)CC2)NC1=O [GIP-027, AGLU-Glutar-Asp-Trp-5Clw-Tap-Glu-leu-[Cys(2Lut)-dab(DOTA)-Leu-Ile-Cys]-APAc-glu(AGLU)-NH2] ({NH(1-deoxy-D-glucityl)-Glutaryl}-DW[Trp(5-Cl)][Pro(4R-NH2)]E[dL]C[dDab](DOTA)LIC[X1][dE](NH(1-deoxy-D-glucityl))-NH2; linker 7-11 via Pyridine(2,6-diCH2))"
3,< 0.01,"CC[C@H](C)[C@@H]1NC(=O)[C@H](CC(C)C)NC(=O)C2(CCN(C(=O)CC[C@H](C(=O)O)N3CCN(CC(=O)O)CCN(CC(=O)O)CC3)CC2)NC(=O)[C@@H](NC(=O)[C@@H](CC(C)C)NC(=O)[C@H](CCC(=O)O)NC(=O)[C@@H]2C[C@@H](N)CN2C(=O)[C@H](Cc2c[nH]c3ccc(Cl)cc23)NC(=O)[C@H](Cc2c[nH]c3ccccc23)NC(=O)[C@H](CC(=O)O)NC(=O)CCCC(=O)NC[C@H](O)[C@@H](O)[C@H](O)[C@H](O)CO)CSCc2cccc(n2)CSC[C@@H](C(=O)NC2CCN(CC(=O)N[C@H](CCC(=O)NC[C@H](O)[C@@H](O)[C@H](O)[C@H](O)CO)C(N)=O)CC2)NC1=O [GIP-028, AGLU-Glutar-Asp-Trp-5Clw-Tap-Glu-leu-[Cys(2Lut)-Apc(NODAGA)-Leu-Ile-Cys]-APAc-glu(AGLU)-NH2] ({NH(1-deoxy-D-glucityl)-Glutaryl}-DW[Trp(5-Cl)][Pro(4R-NH2)]E[dL]C[Api](X9)LIC[X1][dE](NH(1-deoxy-D-glucityl))-NH2; linker 7-11 via Pyridine(2,6-diCH2))"
